Target: T1, steroid sulfatase (STS) (Homo sapiens, UniProt P08842)
T1 sequence (P08842 22-583): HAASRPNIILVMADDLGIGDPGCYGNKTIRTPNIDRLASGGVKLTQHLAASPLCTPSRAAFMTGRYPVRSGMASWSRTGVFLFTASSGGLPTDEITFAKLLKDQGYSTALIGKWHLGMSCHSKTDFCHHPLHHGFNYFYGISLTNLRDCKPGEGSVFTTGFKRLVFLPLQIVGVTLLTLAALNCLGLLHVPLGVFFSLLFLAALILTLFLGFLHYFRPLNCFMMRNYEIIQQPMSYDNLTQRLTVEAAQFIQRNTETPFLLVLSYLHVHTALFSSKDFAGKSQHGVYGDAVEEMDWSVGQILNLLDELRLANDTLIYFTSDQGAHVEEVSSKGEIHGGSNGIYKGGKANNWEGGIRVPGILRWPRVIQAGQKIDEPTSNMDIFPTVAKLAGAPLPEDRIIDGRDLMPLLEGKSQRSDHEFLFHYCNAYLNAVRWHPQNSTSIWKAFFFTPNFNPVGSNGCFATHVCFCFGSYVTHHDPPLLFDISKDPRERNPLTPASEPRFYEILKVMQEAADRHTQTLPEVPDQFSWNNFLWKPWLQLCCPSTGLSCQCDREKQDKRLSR
Experiment: STS inhibition in intact MCF-7 breast cancer cells
Assay type: cell-based
Set-up: endogenous in cells; host or cells: MCF-7 breast cancer cells
Conditions: 3 nM E1S

Compound	IC50
CCCCCc1cc(=O)oc2cc(OS(N)(=O)=O)ccc12 [compound 10, 4-Pentylcoumarin-7-O-sulfamate]	10 nM
CCCCCCCCCCCCCc1cc(=O)oc2cc(OS(N)(=O)=O)ccc12 [compound 18, 4-Tridecylcoumarin-7-O-sulfamate]	3.2 nM
NS(=O)(=O)Oc1ccc2c(CCl)cc(=O)oc2c1 [compound 21, 4-Chloromethylcoumarin-7-O-sulfamate]	220 nM
NS(=O)(=O)Oc1ccc2c(Cc3ccccc3)cc(=O)oc2c1 [compound 23, 4-Benzylcoumarin-7-O-sulfamate]	75 nM
Cc1c(Cl)c(=O)oc2cc(OS(N)(=O)=O)ccc12 [compound 39, 3-Chloro-4-methylcoumarin-7-O-sulfamate]	600 nM

Same assay, conditions: MCF7, read-out: % Inhibition of STS Activity in Intact MCF-7 Breast Cancer Cells at 0.01 μM

Compound	inhibition at 0.01 µM
CCCCCc1cc(=O)oc2cc(OS(N)(=O)=O)ccc12 [compound 10, 4-Pentylcoumarin-7-O-sulfamate]	52%
CCCCCCCCCc1cc(=O)oc2cc(OS(N)(=O)=O)ccc12 [compound 14, 4-Nonylcoumarin-7-O-sulfamate]	90%
CCCCCCCCCCc1cc(=O)oc2cc(OS(N)(=O)=O)ccc12 [compound 15, 4-Decylcoumarin-7-O-sulfamate]	86%
CCCCCCCCCCCCc1cc(=O)oc2cc(OS(N)(=O)=O)ccc12 [compound 17, 4-Dodecylcoumarin-7-O-sulfamate]	22%
CCCCCCCCCCCCCc1cc(=O)oc2cc(OS(N)(=O)=O)ccc12 [compound 18, 4-Tridecylcoumarin-7-O-sulfamate]	72%
NS(=O)(=O)Oc1ccc2c(CCl)cc(=O)oc2c1 [compound 21, 4-Chloromethylcoumarin-7-O-sulfamate]	6%
NS(=O)(=O)Oc1ccc2c(Cc3ccccc3)cc(=O)oc2c1 [compound 23, 4-Benzylcoumarin-7-O-sulfamate]	8%

Same assay, conditions: MCF7, read-out: % Inhibition of STS Activity in Intact MCF-7 Breast Cancer Cells at 0.1 μM

Compound	inhibition at 0.1 µM
CCCCc1cc(=O)oc2cc(OS(N)(=O)=O)ccc12 [compound 9, 4-Butylcoumarin-7-O-sulfamate]	85%
CCCCCc1cc(=O)oc2cc(OS(N)(=O)=O)ccc12 [compound 10, 4-Pentylcoumarin-7-O-sulfamate]	88%
CCCCCCc1cc(=O)oc2cc(OS(N)(=O)=O)ccc12 [compound 11, 4-Hexylcoumarin-7-O-sulfamate]	87%
CCCCCCCCCc1cc(=O)oc2cc(OS(N)(=O)=O)ccc12 [compound 14, 4-Nonylcoumarin-7-O-sulfamate]	96%
CCCCCCCCCCc1cc(=O)oc2cc(OS(N)(=O)=O)ccc12 [compound 15, 4-Decylcoumarin-7-O-sulfamate]	95%
CCCCCCCCCCCCc1cc(=O)oc2cc(OS(N)(=O)=O)ccc12 [compound 17, 4-Dodecylcoumarin-7-O-sulfamate]	67%
CCCCCCCCCCCCCc1cc(=O)oc2cc(OS(N)(=O)=O)ccc12 [compound 18, 4-Tridecylcoumarin-7-O-sulfamate]	96%
NS(=O)(=O)Oc1ccc2c(CCl)cc(=O)oc2c1 [compound 21, 4-Chloromethylcoumarin-7-O-sulfamate]	33%
NS(=O)(=O)Oc1ccc2c(Cc3ccccc3)cc(=O)oc2c1 [compound 23, 4-Benzylcoumarin-7-O-sulfamate]	55%
Cc1c(Cl)c(=O)oc2cc(OS(N)(=O)=O)ccc12 [compound 39, 3-Chloro-4-methylcoumarin-7-O-sulfamate]	29%

Same assay, conditions: MCF7, read-out: % Inhibition of STS Activity in Intact MCF-7 Breast Cancer Cells at 1 μM

Compound	inhibition at 1 µM
CCCCc1cc(=O)oc2cc(OS(N)(=O)=O)ccc12 [compound 9, 4-Butylcoumarin-7-O-sulfamate]	91%
CCCCCc1cc(=O)oc2cc(OS(N)(=O)=O)ccc12 [compound 10, 4-Pentylcoumarin-7-O-sulfamate]	92%
CCCCCCc1cc(=O)oc2cc(OS(N)(=O)=O)ccc12 [compound 11, 4-Hexylcoumarin-7-O-sulfamate]	90%
CCCCCCCCCc1cc(=O)oc2cc(OS(N)(=O)=O)ccc12 [compound 14, 4-Nonylcoumarin-7-O-sulfamate]	98%
CCCCCCCCCCc1cc(=O)oc2cc(OS(N)(=O)=O)ccc12 [compound 15, 4-Decylcoumarin-7-O-sulfamate]	98%
CCCCCCCCCCCCc1cc(=O)oc2cc(OS(N)(=O)=O)ccc12 [compound 17, 4-Dodecylcoumarin-7-O-sulfamate]	95%
NS(=O)(=O)Oc1ccc2c(CCl)cc(=O)oc2c1 [compound 21, 4-Chloromethylcoumarin-7-O-sulfamate]	82%
NS(=O)(=O)Oc1ccc2c(Cc3ccccc3)cc(=O)oc2c1 [compound 23, 4-Benzylcoumarin-7-O-sulfamate]	70%
Cc1c(Cl)c(=O)oc2cc(OS(N)(=O)=O)ccc12 [compound 39, 3-Chloro-4-methylcoumarin-7-O-sulfamate]	67%

Same assay, conditions: MCF7, read-out: % Inhibition of STS Activity in Intact MCF-7 Breast Cancer Cells at 10 μM

Compound	inhibition at 10 µM
CCCCc1cc(=O)oc2cc(OS(N)(=O)=O)ccc12 [compound 9, 4-Butylcoumarin-7-O-sulfamate]	93%
CCCCCc1cc(=O)oc2cc(OS(N)(=O)=O)ccc12 [compound 10, 4-Pentylcoumarin-7-O-sulfamate]	95%
CCCCCCc1cc(=O)oc2cc(OS(N)(=O)=O)ccc12 [compound 11, 4-Hexylcoumarin-7-O-sulfamate]	93%
CCCCCCCCCc1cc(=O)oc2cc(OS(N)(=O)=O)ccc12 [compound 14, 4-Nonylcoumarin-7-O-sulfamate]	100%
CCCCCCCCCCc1cc(=O)oc2cc(OS(N)(=O)=O)ccc12 [compound 15, 4-Decylcoumarin-7-O-sulfamate]	100%
CCCCCCCCCCCCc1cc(=O)oc2cc(OS(N)(=O)=O)ccc12 [compound 17, 4-Dodecylcoumarin-7-O-sulfamate]	98%
NS(=O)(=O)Oc1ccc2c(CCl)cc(=O)oc2c1 [compound 21, 4-Chloromethylcoumarin-7-O-sulfamate]	92%
NS(=O)(=O)Oc1ccc2c(Cc3ccccc3)cc(=O)oc2c1 [compound 23, 4-Benzylcoumarin-7-O-sulfamate]	84%
Cc1c(Cl)c(=O)oc2cc(OS(N)(=O)=O)ccc12 [compound 39, 3-Chloro-4-methylcoumarin-7-O-sulfamate]	87%

Target: T1, steroid sulfatase (STS)
Experiment: STS inhibition in placental microsomes
Assay type: biochemical
Set-up: a placental microsomal preparation from a sulfatase-positive human placenta from a normal term pregnancy; from tissue; host or cells: human placenta (microsomal preparation)
Conditions: 0.01 μM inhibitor; 20 μM E1S

Compound	inhibition at 0.01 µM
CCCCc1cc(=O)oc2cc(OS(N)(=O)=O)ccc12 [compound 9, 4-Butylcoumarin-7-O-sulfamate]	10%
CCCCCc1cc(=O)oc2cc(OS(N)(=O)=O)ccc12 [compound 10, 4-Pentylcoumarin-7-O-sulfamate]	22%
CCCCCCc1cc(=O)oc2cc(OS(N)(=O)=O)ccc12 [compound 11, 4-Hexylcoumarin-7-O-sulfamate]	6%
CCCCCCCCCc1cc(=O)oc2cc(OS(N)(=O)=O)ccc12 [compound 14, 4-Nonylcoumarin-7-O-sulfamate]	18%
CCCCCCCCCCc1cc(=O)oc2cc(OS(N)(=O)=O)ccc12 [compound 15, 4-Decylcoumarin-7-O-sulfamate]	17%
CCCCCCCCCCCCc1cc(=O)oc2cc(OS(N)(=O)=O)ccc12 [compound 17, 4-Dodecylcoumarin-7-O-sulfamate]	17%
CCCCCCCCCCCCCc1cc(=O)oc2cc(OS(N)(=O)=O)ccc12 [compound 18, 4-Tridecylcoumarin-7-O-sulfamate]	7%
NS(=O)(=O)Oc1ccc2c(CCl)cc(=O)oc2c1 [compound 21, 4-Chloromethylcoumarin-7-O-sulfamate]	10%
NS(=O)(=O)Oc1ccc2c(Cc3ccccc3)cc(=O)oc2c1 [compound 23, 4-Benzylcoumarin-7-O-sulfamate]	2%

Same assay, conditions: 0.1 μM inhibitor; 20 μM E1S

Compound	inhibition at 0.1 µM
CCCCc1cc(=O)oc2cc(OS(N)(=O)=O)ccc12 [compound 9, 4-Butylcoumarin-7-O-sulfamate]	49%
CCCCCc1cc(=O)oc2cc(OS(N)(=O)=O)ccc12 [compound 10, 4-Pentylcoumarin-7-O-sulfamate]	70%
CCCCCCc1cc(=O)oc2cc(OS(N)(=O)=O)ccc12 [compound 11, 4-Hexylcoumarin-7-O-sulfamate]	70%
CCCCCCCCCc1cc(=O)oc2cc(OS(N)(=O)=O)ccc12 [compound 14, 4-Nonylcoumarin-7-O-sulfamate]	79%
CCCCCCCCCCc1cc(=O)oc2cc(OS(N)(=O)=O)ccc12 [compound 15, 4-Decylcoumarin-7-O-sulfamate]	74%
CCCCCCCCCCCCc1cc(=O)oc2cc(OS(N)(=O)=O)ccc12 [compound 17, 4-Dodecylcoumarin-7-O-sulfamate]	68%
CCCCCCCCCCCCCc1cc(=O)oc2cc(OS(N)(=O)=O)ccc12 [compound 18, 4-Tridecylcoumarin-7-O-sulfamate]	55%
NS(=O)(=O)Oc1ccc2c(CCl)cc(=O)oc2c1 [compound 21, 4-Chloromethylcoumarin-7-O-sulfamate]	19%
NS(=O)(=O)Oc1ccc2c(Cc3ccccc3)cc(=O)oc2c1 [compound 23, 4-Benzylcoumarin-7-O-sulfamate]	61%

Same assay, conditions: 1 μM inhibitor; 20 μM E1S

Compound	inhibition at 1 µM
CCCCc1cc(=O)oc2cc(OS(N)(=O)=O)ccc12 [compound 9, 4-Butylcoumarin-7-O-sulfamate]	91%
CCCCCc1cc(=O)oc2cc(OS(N)(=O)=O)ccc12 [compound 10, 4-Pentylcoumarin-7-O-sulfamate]	97%
CCCCCCc1cc(=O)oc2cc(OS(N)(=O)=O)ccc12 [compound 11, 4-Hexylcoumarin-7-O-sulfamate]	97%
CCCCCCCCCc1cc(=O)oc2cc(OS(N)(=O)=O)ccc12 [compound 14, 4-Nonylcoumarin-7-O-sulfamate]	97%
CCCCCCCCCCc1cc(=O)oc2cc(OS(N)(=O)=O)ccc12 [compound 15, 4-Decylcoumarin-7-O-sulfamate]	96%
CCCCCCCCCCCCc1cc(=O)oc2cc(OS(N)(=O)=O)ccc12 [compound 17, 4-Dodecylcoumarin-7-O-sulfamate]	89%
CCCCCCCCCCCCCc1cc(=O)oc2cc(OS(N)(=O)=O)ccc12 [compound 18, 4-Tridecylcoumarin-7-O-sulfamate]	80%
NS(=O)(=O)Oc1ccc2c(CCl)cc(=O)oc2c1 [compound 21, 4-Chloromethylcoumarin-7-O-sulfamate]	59%
NS(=O)(=O)Oc1ccc2c(Cc3ccccc3)cc(=O)oc2c1 [compound 23, 4-Benzylcoumarin-7-O-sulfamate]	96%

Same assay, conditions: 10 μM inhibitor; 20 μM E1S

Compound	inhibition at 10 µM
CCCCc1cc(=O)oc2cc(OS(N)(=O)=O)ccc12 [compound 9, 4-Butylcoumarin-7-O-sulfamate]	98%
CCCCCc1cc(=O)oc2cc(OS(N)(=O)=O)ccc12 [compound 10, 4-Pentylcoumarin-7-O-sulfamate]	99%
CCCCCCc1cc(=O)oc2cc(OS(N)(=O)=O)ccc12 [compound 11, 4-Hexylcoumarin-7-O-sulfamate]	99%
CCCCCCCCCc1cc(=O)oc2cc(OS(N)(=O)=O)ccc12 [compound 14, 4-Nonylcoumarin-7-O-sulfamate]	99%
CCCCCCCCCCc1cc(=O)oc2cc(OS(N)(=O)=O)ccc12 [compound 15, 4-Decylcoumarin-7-O-sulfamate]	99%
CCCCCCCCCCCCc1cc(=O)oc2cc(OS(N)(=O)=O)ccc12 [compound 17, 4-Dodecylcoumarin-7-O-sulfamate]	96%
CCCCCCCCCCCCCc1cc(=O)oc2cc(OS(N)(=O)=O)ccc12 [compound 18, 4-Tridecylcoumarin-7-O-sulfamate]	91%
NS(=O)(=O)Oc1ccc2c(CCl)cc(=O)oc2c1 [compound 21, 4-Chloromethylcoumarin-7-O-sulfamate]	94%
NS(=O)(=O)Oc1ccc2c(Cc3ccccc3)cc(=O)oc2c1 [compound 23, 4-Benzylcoumarin-7-O-sulfamate]	99%

Same assay, conditions: 20 μM E1S

Compound	IC50
CCCCc1cc(=O)oc2cc(OS(N)(=O)=O)ccc12 [compound 9, 4-Butylcoumarin-7-O-sulfamate]	102 nM
CCCCCc1cc(=O)oc2cc(OS(N)(=O)=O)ccc12 [compound 10, 4-Pentylcoumarin-7-O-sulfamate]	40 nM
CCCCCCc1cc(=O)oc2cc(OS(N)(=O)=O)ccc12 [compound 11, 4-Hexylcoumarin-7-O-sulfamate]	52 nM
CCCCCCCCCc1cc(=O)oc2cc(OS(N)(=O)=O)ccc12 [compound 14, 4-Nonylcoumarin-7-O-sulfamate]	60 nM
CCCCCCCCCCc1cc(=O)oc2cc(OS(N)(=O)=O)ccc12 [compound 15, 4-Decylcoumarin-7-O-sulfamate]	60 nM
CCCCCCCCCCCCc1cc(=O)oc2cc(OS(N)(=O)=O)ccc12 [compound 17, 4-Dodecylcoumarin-7-O-sulfamate]	45 nM
CCCCCCCCCCCCCc1cc(=O)oc2cc(OS(N)(=O)=O)ccc12 [compound 18, 4-Tridecylcoumarin-7-O-sulfamate]	85 nM
NS(=O)(=O)Oc1ccc2c(CCl)cc(=O)oc2c1 [compound 21, 4-Chloromethylcoumarin-7-O-sulfamate]	600 nM
NS(=O)(=O)Oc1ccc2c(Cc3ccccc3)cc(=O)oc2c1 [compound 23, 4-Benzylcoumarin-7-O-sulfamate]	64 nM
